Measurements published in patent publication US20190345199A1, “LIPOLANTHIPEPTIDES AND THEIR USES AS ANTIMICROBIAL AGENTS” (DEINOVE, priority 2017, published 2019).
≈ marks a conversion by molar mass, not a printed value. Like-named read-outs stand apart in the source and are kept apart here.

Columns and labels:
Assay type in all cases: cell-based
[1] = system: Enterococcus faecium; experiment: MIC, CLSI dilution antibacterial susceptibility test
Experimental: (§1) The measures of activities were conducted on compound NOC1 from Nocardia terpenica following the protocol recommended by the Clinical and Laboratory Standards Institute (CLSI)—Clinical and Laboratory Standards Institute (CLSI, formerly NCCLS): Methods for Dilution Antibacterial Susceptibility Tests for Bacteria That Grow Aerobically; Approved Standard—Tenth Edition (2015). Clinical and Laboratory Standards Institute Document M07-A10.
(§2) The measures of activities were conducted on compounds A, B and C, following the protocol recommended by the Clinical and Laboratory Standards Institute (CLSI)—Clinical and Laboratory Standards Institute (CLSI, formerly NCCLS):
(§3) Methods for Dilution Antibacterial Susceptibility Tests for Bacteria That Grow Aerobically; Approved Standard—Tenth Edition (2015). Clinical and Laboratory Standards Institute Document M07-A10.

[2] = system: Staphylococcus aureus; experiment: as above; conditions: read-out: Minimal Inhibitory Concentration (MIC)
Experimental: as §1, §2, §3

[3] = system: Bacillus subtilis; experiment: as above; conditions: Bacillus subtilis ATCC6633
Experimental: as §1

[4] = system: Enterococcus faecalis; experiment: as above
Experimental: as §1

[5] = system: Candida albicans; experiment: MIC, extended antimicrobial activities (fungi); conditions: Candida albicans ATCC10231
[6] = system: Candida parapsilosis; experiment: MIC, extended antimicrobial activities (fungi); conditions: Lodderomyces parapsilosis; Candida parapsilosis DSMZ5784
Experimental: as §1

[7] = system: Candida tropicalis; experiment: MIC, extended antimicrobial activities (fungi); conditions: Candida tropicalis DSMZ11953
Experimental: as §1

[8] = system: Candida krusei; experiment: MIC, extended antimicrobial activities (fungi); conditions: Pichia kudriavzevii; Candida krusei DSMZ6128
[9] = system: Candida glabrata; experiment: MIC, extended antimicrobial activities (fungi); conditions: Nakaseomyces glabratus; Candida glabrata DSMZ6425
[10] = system: Cryptococcus neoformans; experiment: MIC, extended antimicrobial activities (fungi); conditions: Cryptococcus neoformans DSMZ6972

Structure (SMILES): CCC(C)C1NC(=O)C(NC(=O)C(C)NC(=O)/C=C/C=C/CC/C=C/CCCCN/C(=N/C)NC)CC2(CS/C=C\NC(=O)CNC(=O)C(CC(N)=O)NC2=O)NC(=O)C(CO)NC1=O (stereo not shown) [NOC1]
- MIC ([1]; Enterococcus faecium ATCC19434, vancomycin sensitive): 8 µg/mL (≈ 8.59 µM)
- MIC ([1]; Enterococcus faecium ATCC51559, vancomycin resistant (gene vanA)): 16 µg/mL (≈ 17.2 µM)
- MIC ([1]; Enterococcus faecium ATCC51858, vancomycin resistant (gene vanB)): 16 µg/mL (≈ 17.2 µM)
- MIC ([2]; S. aureus ATTC 1683 (ATCC1683), methicillin resistant): 16 µg/mL (≈ 17.2 µM)
- MIC ([2]; S. aureus ATTC 13709 (ATCC13709), fully susceptible / methicillin sensitive): 2 µg/mL (≈ 2.15 µM)
- MIC ([2]; S. aureus ATTC 25923 (ATCC25923), methicillin sensitive): 2 µg/mL (≈ 2.15 µM)
- MIC ([2]; S. aureus USA300, methicillin resistant): 60 µg/mL (≈ 64.4 µM)
- MIC [3]: 2 µg/mL (≈ 2.15 µM)
- MIC ([4]; Enterococcus faecalis ATCC29212, vancomycin sensitive): 160 µg/mL (≈ 172 µM)
- MIC ([4]; Enterococcus faecalis ATCC700802, vancomycin resistant (gene vanB)): 16 µg/mL (≈ 17.2 µM)
- MIC [5]: 3 µg/mL (≈ 3.22 µM)
- MIC [6]: 24 µg/mL (≈ 25.8 µM)
- MIC [7]: 6 µg/mL (≈ 6.44 µM)
- MIC [8]: 12 µg/mL (≈ 12.9 µM)
- MIC [9]: 12 µg/mL (≈ 12.9 µM)
- MIC [10]: 24 µg/mL (≈ 25.8 µM)
